The values that follow are results of earlier work, collected in patent publication US20170369926A1, “NEW MARKERS FOR EARLY DIAGNOSIS OF OVARIAN CANCER, MONITORING DURING THERAPY, AND NEW THERAPY OPTIONS DURING AND AFTER CHEMOTHERAPY” (Bioventures, LLC, priority 2011, published 2017).

As a reminder, the IC50 is the concentration at which inhibition is half-maximal.

Data set [1] concerns the target plasma kallikrein (Homo sapiens, UniProt P03952). Conditions: from reference (15).
For data set [2], the target named is hepsin (Homo sapiens, UniProt P05981). Particulars: literature statement.
hepsin, sequence (P05981 whole entry): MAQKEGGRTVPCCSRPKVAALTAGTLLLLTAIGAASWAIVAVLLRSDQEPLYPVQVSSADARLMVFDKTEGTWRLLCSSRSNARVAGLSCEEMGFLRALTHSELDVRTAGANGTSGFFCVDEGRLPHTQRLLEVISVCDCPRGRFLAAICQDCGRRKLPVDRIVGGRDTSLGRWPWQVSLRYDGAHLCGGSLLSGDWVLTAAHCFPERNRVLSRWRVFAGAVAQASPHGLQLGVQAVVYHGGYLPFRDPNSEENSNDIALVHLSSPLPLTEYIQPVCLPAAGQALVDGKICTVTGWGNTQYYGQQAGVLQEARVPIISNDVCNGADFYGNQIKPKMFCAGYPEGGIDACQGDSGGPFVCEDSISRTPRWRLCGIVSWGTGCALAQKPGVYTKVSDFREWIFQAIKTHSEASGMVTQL

plasma kallikrein, sequence (P03952 20-638, species assumed): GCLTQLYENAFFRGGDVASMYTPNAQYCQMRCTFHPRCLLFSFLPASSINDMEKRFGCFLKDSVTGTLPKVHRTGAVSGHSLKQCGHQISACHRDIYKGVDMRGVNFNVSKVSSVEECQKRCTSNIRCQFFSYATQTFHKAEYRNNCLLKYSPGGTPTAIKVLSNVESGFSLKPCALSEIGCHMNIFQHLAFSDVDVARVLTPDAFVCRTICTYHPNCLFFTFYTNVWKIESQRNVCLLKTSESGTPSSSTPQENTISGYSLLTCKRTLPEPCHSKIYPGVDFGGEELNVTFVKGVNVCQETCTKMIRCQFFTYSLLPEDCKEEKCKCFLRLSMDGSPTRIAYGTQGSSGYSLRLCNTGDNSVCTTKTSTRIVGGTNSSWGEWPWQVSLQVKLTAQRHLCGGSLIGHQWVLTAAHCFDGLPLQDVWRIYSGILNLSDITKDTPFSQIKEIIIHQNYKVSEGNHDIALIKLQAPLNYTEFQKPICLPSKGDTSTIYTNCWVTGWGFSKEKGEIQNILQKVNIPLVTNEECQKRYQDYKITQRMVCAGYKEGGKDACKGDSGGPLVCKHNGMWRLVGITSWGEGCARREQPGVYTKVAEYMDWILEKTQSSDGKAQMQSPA

For the compound `CN(C)C(=O)COC(=O)Cc1ccc(OC(=O)c2ccc(NC(=N)N)cc2)cc1.CS(=O)(=O)O` [FOY-305], the IC50 in data set [1] was 1.5 µM. Also, the “effective dose by intraperitoneal injection in mice” value (intraperitoneal injection, reference (5)) is listed as 20 mg/kg. The “effective dose orally in mice” value (oral, in food) is recorded as 0.1 % of the food.

Turning to `CC(C)(Sc1cc(C(C)(C)C)c(O)c(C(C)(C)C)c1)Sc1cc(C(C)(C)C)c(O)c(C(C)(C)C)c1` [Probucol, probucol], in data set [2], the inhibition of hepsin result is “inhibits hepsin”.
